Data: PMC3401593 (Journal of Pharmaceutical Sciences, 2009)
Marks after values point to notes of the source that are not given here.

Tests used:
[1] = tested on: mdr1a/b (+/+) and mdr1a/b (−/−) mice; details: mouse, in vivo
in vitro = details: human, Caco-2
[2] = mouse, in vivo, sc
P-gp = assay: in vitro; details: human, Caco-2, Papp B–A

Row | Molecule | AUEC Ratio mdr1a/b (−/−)/mdr1a/b (+/+) [1] | Area Under the Effect Curve (AUEC), mdr1a/b (+/+) [1] [% MPE × min] | Area Under the Effect Curve (AUEC), mdr1a/b (−/−) [1] | Time of peak %MPE [1] [min] | Papp at 0.2 μCi/mL (in vitro) [×10⁻⁶ cm/s] | %MPE, P-gp knockout mice versus wild-type [1] | Levels in liver and kidney tissues, mdr1a/b (−/−) versus mdr1a/b (+/+) mice [2] | Papp B→A (P-gp) [×10⁻⁶ cm/s]
1 | buprenorphine | 1.47 ± 0.3 | 1943.74 ± 326.81 | 2854.93 ± 325.27 % MPE × min | 45 |  |  |  | 
2 | OC[C@@H](O)[C@@H](O)[C@H](O)[C@H](O)CO [mannitol] |  |  |  |  | 5.21 |  |  | 
3 | CCC(=O)C(CC(C)N(C)C)(c1ccccc1)c1ccccc1 (centres unmarked) [Methadone, methadone] |  | 1501.85 ± 246.45 | 4099.26 ± 488.58 ^a % MPE × min | 15 |  | significantly higher | no significant differences | 19.4 ± 1.01
